Results: patent US20260098030A1, “NEGATIVE ALLOSTERIC MODULATORS OF METABOTROPIC GLUTAMATE RECEPTOR 2” (Vanderbilt University, priority 2022, published 2026)

Columns and labels:
Rat mGlu3 = Rat mGlu3 (UniProt P31422); assay: mGlu GIRK cell-based thallium flux assay, mGlu3; conditions: HEK-293 cells co-expressing mGlu3 and GIRK, EC80 glutamate
rat mGlu2 = target: T1, rat mGlu2 (Rattus norvegicus, UniProt P31421); assay: mGlu GIRK cell-based thallium flux assay, rat mGlu2; conditions: HEK-293 cells co-expressing rat mGlu2 and GIRK, EC80 glutamate
T1 construct: expressed in transfected cells; host or cells: HEK-293 cells stably co-expressing GIRK channels
Method in brief: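 HEK-293 cells stably co-expressing GIRK with human mGlu3, human mGlu2 or rat mGlu2 were loaded 1 h at 25° C with Thallos dye, then given compound (30 μM to 1.5 nM final, 10-point) for 2 min 20 s before EC80 glutamate plus thallium. Baseline-corrected fluorescence slope, normalized to ECmax glutamate, fitted to 4-parameter logistic for IC50.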

human mGlu2 = target: T2, human mGlu2 (Homo sapiens, UniProt Q14416); assay: mGlu GIRK cell-based thallium flux assay, human mGlu2; conditions: HEK-293 cells co-expressing human mGlu2 and GIRK, EC80 glutamate
T2 construct: expressed in transfected cells; host or cells: HEK-293 cells stably co-expressing GIRK channels
Experimental: Human embryonic kidney (HEK-293) cell lines stably co-expressing human or rat mGlu2 and G protein-coupled inwardly rectifying potassium (GIRK) channels, or human mGlu3 and GIRK, were used for in vitro evaluation of compound activity in thallium flux assay using a fluorescent thallium indicator dye.
The day before the assay, GIRK cells co-expressing human mGlu3, human or rat mGlu2, as described above, were plated in black-walled, clear-bottomed, amine-coated 384-well plates at a density of 15,000 cells/20 μL/well in the assay medium (glutamine-depleted basal DMEM supplemented with 10% dialyzed FBS, 20 mM HEPES, 1 mM sodium pyruvate). Cells were incubated at 37° C. in the presence of 5% CO2. The next day, assay buffer (Hanks balanced salt solution, 20 mM HEPES, 4.16 mM sodium bicarbonate, pH 7.2) was prepared to dilute compounds and Thallos AM fluorescent dye solution. The 2× Thallos dye solution (final concentration 0.34 μM to the cells) was prepared by mixing the dye stock (2.97 mM in DMSO) to 1:1 with 10% pluronic acid before adding to the assay buffer. Cells were washed with assay buffer using a microplate washer to remove the medium, resulting in 20 μL of buffer remaining in each well. Immediately, 20 μL of 2× Thallos dye solution was added to cells, and incubated for one hour at 25° C. During the cell dye loading incubation period, a 10-point concentration serial dilution of compound was created from a 10 mM DMSO compound stock by performing a 1:3 serial dilution in DMSO using the Bravo liquid handler. The 2× compound plate was generated by transferring 0.24 μL of the diluted compound in each well to a daughter plate using an Echo acoustic liquid handler. This is further diluted in 40 μL assay buffer, resulting in a range from 30 μM to 1.5 nM final concentration in the assay. The agonist plate (5×) was prepared to include EC80 glutamate concentration (a concentration to elicit 80% of a maximally effective glutamate concentration) in thallium buffer (125 mM […], 1 mM magnesium sulfate, 1.8 mM calcium sulfate, 5 mM glucose, 10 mM HEPES, pH 7.2, 12.5 mM thallium sulfate).
After dye-loading, cell plates were washed with assay buffer to remove excess extracellular dye using a microplate washer, resulting in 20 μL of buffer remaining in each well. After a ten-minute equilibration period, cell, compound and agonist plates were loaded into a Hamamatsu μCell kinetic imaging plate reader equipped with liquid handler to monitor fluorescence changes at 480 nm excitation and 540 nm emission settings. Briefly, after collection of baseline fluorescence, 20 μL of compound was added and incubated for two minutes and twenty seconds. This is immediately followed by adding 10 μL of glutamate-thallium buffer to the wells containing compound. The fluorescent signal was monitored an additional 2.5 minutes after the glutamate addition. Multiple reference wells containing no compound received either no glutamate (for a baseline reference), EC80 glutamate, or ECmax glutamate (for normalization to maximum response). Fluorescence was measured throughout the experiment at a frequency of 1 measurement per every 2 seconds before the glutamate addition and a frequency of 1 measurement per every 1 second after the glutamate addition. Each compound concentration series occurred one time in each plate, and replicates from two or three plates were used in each experimental run. Thallium solutions were handled and disposed of according to guidelines from the Vanderbilt University Chemical Safety department.
Data were normalized using a static ratio function (F/F0) by dividing every fluorescent measurement by the initial fluorescent value for the corresponding well. The increase in signal resulting from the glutamate/thallium addition of the second add was measured by determining the slope from 3 seconds to 13 seconds after the addition. […]

T1 sequence (P31421 19-872): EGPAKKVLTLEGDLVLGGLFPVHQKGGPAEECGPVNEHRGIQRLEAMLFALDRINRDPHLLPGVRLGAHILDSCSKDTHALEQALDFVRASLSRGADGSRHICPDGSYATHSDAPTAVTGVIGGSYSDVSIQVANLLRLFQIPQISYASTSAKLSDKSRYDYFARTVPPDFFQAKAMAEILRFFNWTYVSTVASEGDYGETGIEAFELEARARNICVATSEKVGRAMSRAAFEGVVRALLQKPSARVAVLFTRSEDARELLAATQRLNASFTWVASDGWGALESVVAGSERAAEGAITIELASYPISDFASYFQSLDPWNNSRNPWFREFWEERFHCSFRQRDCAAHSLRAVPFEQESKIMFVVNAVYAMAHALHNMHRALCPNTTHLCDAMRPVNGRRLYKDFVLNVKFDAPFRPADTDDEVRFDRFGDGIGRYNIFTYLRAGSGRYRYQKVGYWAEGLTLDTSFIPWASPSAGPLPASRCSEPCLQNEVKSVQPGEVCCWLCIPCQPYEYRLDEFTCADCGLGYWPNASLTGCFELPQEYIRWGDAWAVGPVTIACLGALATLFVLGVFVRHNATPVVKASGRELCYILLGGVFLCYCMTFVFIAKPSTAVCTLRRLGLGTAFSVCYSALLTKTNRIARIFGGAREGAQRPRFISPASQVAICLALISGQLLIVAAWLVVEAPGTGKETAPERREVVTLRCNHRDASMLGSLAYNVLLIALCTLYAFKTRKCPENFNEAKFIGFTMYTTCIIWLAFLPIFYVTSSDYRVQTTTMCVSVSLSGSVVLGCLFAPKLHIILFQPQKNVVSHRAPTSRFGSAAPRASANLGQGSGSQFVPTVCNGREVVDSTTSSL
T2 sequence (Q14416 19-872): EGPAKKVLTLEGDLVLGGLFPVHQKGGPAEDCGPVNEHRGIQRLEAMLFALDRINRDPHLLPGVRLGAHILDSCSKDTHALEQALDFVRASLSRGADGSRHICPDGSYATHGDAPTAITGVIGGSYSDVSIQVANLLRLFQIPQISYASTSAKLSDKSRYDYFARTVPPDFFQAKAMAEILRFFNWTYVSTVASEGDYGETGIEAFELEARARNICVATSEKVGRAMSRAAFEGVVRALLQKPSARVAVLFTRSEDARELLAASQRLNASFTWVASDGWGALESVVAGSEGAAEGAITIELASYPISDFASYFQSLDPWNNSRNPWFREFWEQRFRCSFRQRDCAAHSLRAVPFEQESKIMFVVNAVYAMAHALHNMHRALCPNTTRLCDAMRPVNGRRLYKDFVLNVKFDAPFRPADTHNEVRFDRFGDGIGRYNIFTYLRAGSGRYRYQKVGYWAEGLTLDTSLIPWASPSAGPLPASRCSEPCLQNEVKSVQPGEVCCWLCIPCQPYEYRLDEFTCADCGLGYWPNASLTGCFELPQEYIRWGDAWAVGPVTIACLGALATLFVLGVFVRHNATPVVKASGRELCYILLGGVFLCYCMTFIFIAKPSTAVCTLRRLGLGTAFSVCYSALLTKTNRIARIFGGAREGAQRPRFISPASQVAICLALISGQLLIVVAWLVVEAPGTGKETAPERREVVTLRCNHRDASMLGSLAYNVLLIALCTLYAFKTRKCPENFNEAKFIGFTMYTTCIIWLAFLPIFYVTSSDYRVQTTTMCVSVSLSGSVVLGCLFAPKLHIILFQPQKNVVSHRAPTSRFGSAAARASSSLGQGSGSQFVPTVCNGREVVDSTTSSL

IC50 (Rat mGlu3)	IC50 (rat mGlu2)	IC50 (human mGlu2)	Structure (SMILES)
	> 10000 nM	5840 nM	O=C1NCc2cc(-c3cnco3)c(-c3ccc(F)cc3)cc21 [Compound 2, 6-(4-fluorophenyl)-5-(oxazol-5-yl)isoindolin-1-one]
	> 10000 nM	> 10000 nM	Cn1cc(-c2cc3c(cc2-c2ccc(F)cc2)C(=O)NC3)cn1 [Compound 1, 6-(4-fluorophenyl)-5-(1-methyl-1H-pyrazol-4-yl)isoindolin-1-one]
> 10000 nM	585 nM		Cc1ccc(C#N)cc1-c1cc2c(cc1-c1ccc(F)cc1F)C(=O)NC2 [Compound 96, 3-(6-(2,4-difluorophenyl)-1-oxoisoindolin-5-yl)-4-methylbenzonitrile]
> 10000 nM			O=C1NCc2cc(-c3cccnc3C3CC3)c(-c3ccc(F)cc3F)cc21 [Compound 74, 5-(2-cyclopropylpyridin-3-yl)-6-(2,4-difluorophenyl)isoindolin-1-one]
	> 10000 nM	1560 nM	Cn1cc2cc(-c3cc4c(cc3-c3ccc(F)cc3)C(=O)NC4)ccc2n1 [Compound 7, 6-(4-fluorophenyl)-5-(2-methyl-2H-indazol-5-yl)isoindolin-1-one]
		> 10000 nM	N#Cc1cccc(-c2cc3c(cc2-c2ccc(C#N)c(F)c2)C(=O)NC3)c1 [Compound 167, 4-(6-(3-cyanophenyl)-3-oxoisoindolin-5-yl)-2-fluorobenzonitrile]
		7340 nM	COc1ccc(-c2cc3c(cc2-c2cccc(C#N)c2)CNC3=O)c(Cl)c1 [Compound 173, 3-(6-(2-chloro-4-methoxyphenyl)-1-oxoisoindolin-5-yl)benzonitrile]
		857 nM	Cn1nncc1-c1cccc(-c2cc3c(cc2-c2ccc(F)cc2F)C(=O)NC3)c1 [Compound 151, 6-(2,4-difluorophenyl)-5-(3-(1-methyl-1H-1,2,3-triazol-5-yl)phenyl)isoindolin-1-one]
		220 nM	N#Cc1cccc(-c2cc3c(cc2-c2ccc(F)cc2C#N)C(=O)NC3)c1 [Compound 141, 2-(6-(3-cyanophenyl)-3-oxoisoindolin-5-yl)-5-fluorobenzonitrile]
		1130 nM	COc1ccc(-c2cc3c(cc2-c2cccc(C#N)c2)CNC3=O)c(F)c1F [Compound 184, 3-(6-(2,3-difluoro-4-methoxyphenyl)-1-oxoisoindolin-5-yl)benzonitrile]
	> 10000 nM	528 nM	O=C1NCc2cc(CN3CC(O)(C(F)(F)F)C3)c(-c3ccc(F)cc3F)cc21 [Compound A12, 6-(2,4-difluorophenyl)-5-((3-hydroxy-3-(trifluoromethyl)azetidin-1-yl)methyl)isoindolin-1-one]
		1140 nM	Cn1cc(-c2cc3c(cc2-c2ccc(F)cc2F)C(=O)NC3)cc1C#N [Compound 125, 4-(6-(2,4-difluorophenyl)-1-oxoisoindolin-5-yl)-1-methyl-1H-pyrrole-2-carbonitrile]
		728 nM	N#Cc1cccc(-c2cc3c(cc2-c2ccc(F)c(F)c2F)C(=O)NC3)c1 [Compound 139, 3-(1-oxo-6-(2,3,4-trifluorophenyl)isoindolin-5-yl)benzonitrile]
		287 nM	[2H]C([2H])(c1cc2c(cc1-c1ccc(F)cc1F)C(=O)NC2)C([2H])([2H])c1ccnn1C [Compound A6, 6-(2,4-difluorophenyl)-5-(2-(1-methyl-1H-pyrazol-5-yl)ethyl-1,1,2,2-d4)isoindolin-1-one]
		2350 nM	CCn1cc(-c2cc3c(cc2-c2ccc(F)cc2F)C(=O)NC3)cn1 [Compound 134, 6-(2,4-difluorophenyl)-5-(1-ethyl-1H-pyrazol-4-yl)isoindolin-1-one]
		693 nM	[2H]C([2H])([2H])n1nncc1-c1cccc(-c2cc3c(cc2-c2ccc(F)cc2F)C(=O)NC3)c1 [Compound 152, 6-(2,4-difluorophenyl)-5-(3-(1-(methyl-d3)-1H-1,2,3-triazol-5-yl)phenyl)isoindolin-1-one]
		667 nM	O=C1NCc2cc(CCc3cncnc3)c(-c3ccc(F)cc3F)cc21 [Compound A2, 6-(2,4-difluorophenyl)-5-(2-(pyrimidin-5-yl)ethyl)isoindolin-1-one]

Further lines, the compound ahead of its results:

Structure (SMILES)	IC50 (Rat mGlu3)	IC50 (rat mGlu2)	IC50 (human mGlu2)
Cc1c(-c2cc3c(cc2-c2ccc(F)cc2)C(=O)NC3)ccc2[nH]ncc12 [Compound 9, 6-(4-fluorophenyl)-5-(4-methyl-1H-indazol-5-yl)isoindolin-1-one]	1980 nM	1280 nM	
O=C1NCc2cc(-c3ccncc3)c(-c3ccc(F)cc3)cc21 [Compound 4, 6-(4-fluorophenyl)-5-(pyridin-4-yl)isoindolin-1-one]		> 10000 nM	> 10000 nM
Cc1cc(-c2cc3c(cc2-c2ccc(F)cc2F)C(=O)NC3)c(C#N)n1C [Compound 98, 3-(6-(2,4-difluorophenyl)-1-oxoisoindolin-5-yl)-1,5-dimethyl-1H-pyrrole-2-carbonitrile]	2620 nM	136 nM	
Cc1c(-c2cc3c(cc2-c2ccc(F)cc2F)C(=O)NC3)cc(C#N)n1C [Compound 90, 4-(6-(2,4-difluorophenyl)-1-oxoisoindolin-5-yl)-1,5-dimethyl-1H-pyrrole-2-carbonitrile]		225 nM	185 nM
N#Cc1cccc(-c2cc3c(cc2-c2cccc(C#N)c2F)C(=O)NC3)c1 [Compound 183, 3-(6-(3-cyanophenyl)-3-oxoisoindolin-5-yl)-2-fluorobenzonitrile]			> 10000 nM
Cc1ccc(-c2cc3c(cc2-c2cccc(C#N)c2)CNC3=O)c(C)c1 [Compound 161, 3-(6-(2,4-dimethylphenyl)-1-oxoisoindolin-5-yl)benzonitrile]			4590 nM
CC(C)NC(=O)c1cccc(-c2cc3c(cc2-c2ccc(F)cc2F)C(=O)NC3)c1 [Compound 118, 3-(6-(2,4-difluorophenyl)-1-oxoisoindolin-5-yl)-N-isopropylbenzamide]			1990 nM
CS(=O)(=O)Nc1cccc(-c2cc3c(cc2-c2ccc(F)cc2F)C(=O)NC3)c1 [Compound 116, N-(3-(6-(2,4-difluorophenyl)-1-oxoisoindolin-5-yl)phenyl)methanesulfonamide]			931 nM
[2H]C([2H])(c1ccn(C)n1)C([2H])([2H])c1cc2c(cc1-c1ccc(F)cc1F)C(=O)NC2 [Compound A3, 6-(2,4-difluorophenyl)-5-(2-(1-methyl-1H-pyrazol-3-yl)ethyl-1,1,2,2-d4)isoindolin-1-one]			218 nM
N#Cc1cccc(-c2cc3c(cc2-c2ccc(F)cc2Cl)C(=O)NC3)c1 [Compound 169, 3-(6-(2-chloro-4-fluorophenyl)-1-oxoisoindolin-5-yl)benzonitrile]			2250 nM
O=C1NCc2cc(-c3ccc(=O)n(C(F)F)c3)c(-c3ccc(F)cc3F)cc21 [Compound 135, 5-(1-(difluoromethyl)-6-oxo-1,6-dihydropyridin-3-yl)-6-(2,4-difluorophenyl)isoindolin-1-one]			2020 nM
[2H]C([2H])(C)n1nncc1-c1cccc(-c2cc3c(cc2-c2ccc(F)cc2F)C(=O)NC3)c1 [Compound 153, 6-(2,4-difluorophenyl)-5-(3-(1-(ethyl-1,1-d2)-1H-1,2,3-triazol-5-yl)phenyl)isoindolin-1-one]			727 nM
COc1ccc(F)cc1-c1cc2c(cc1-c1cccc(C#N)c1)CNC2=O [Compound 186, 3-(6-(5-fluoro-2-methoxyphenyl)-1-oxoisoindolin-5-yl)benzonitrile]			> 10000 nM
